Source: patent publication US5827881A, “Diesters of carbonic acid endowed with antiviral and anti-inflammatory activity” (Italfarmaco S.P.A., priority 1994, dated 1998)
Read-outs that look alike come from different tables or passages of the source.

Legend:
[1] = test system: 8E51 Cells permanently infected with LAV (Lymphotropic Adenopathy Virus) and MOLT3 cells; test: Antiviral activity: syncytia formation inhibition (8E51 cells infected with LAV co-incubated with MOLT3 cells); type: cell-based; details: Homo sapiens, MOLT-3
Experimental: The antiviral activity of the compound of the invention was evaluated by the test of the syncytia formation inhibition, according to the procedure reported hereinbelow.
8E51 Cells permanently infected with LAV (Lymphotropic Adenopathy Virus) defective of the po1 gene, and MOLT3 cells (CD4+ human T-lymphoblastoid strain), cultured in RPMI 1640 medium with 10% calf fetal serum were co-incubated in a ratio of 1:2, at a concentration of 10^6 cells/ml, and put in 96-conic shaped bottom wells Microtiter plates. The cells were added with some compounds representative of the invention suitably diluted and, after 30 minutes at 37° C., the whole was centrifuged to obtain a sediment. The […] was incubated for further 2 hours at 37° C., then put in square-bottomed wells. The syncytia (10-100 times bigger than the starting cells) were counted with an optic microscope. In the controls about 100-200 syncytia/well could be seen.

[2] = test system: human TNF (Tumor Necrosis Factor) citotoxicity on LM cells (murine fibroblast strain); test: In vitro anti-inflammatory activity: inhibition of the citotoxicity induced by human TNF on a murine fibroblast strain (LM cells, MTT); type: cell-based; details: Mus musculus; for inhibition at 100 µg/mL: compound 100 μg/ml; for inhibition at 10 µg/mL: compound 10 μg/ml
Experimental: In vitro anti-inflammatory activity
In a 96-square bottomed wells plate 15.000 LM cells (Rubin. B. Y. et al., J.Exp. Med., 162:1099, 1985) were inseminated each well (100 μl) in complete RPMI medium (Flow Lab., Hertz. GB). Each well was added with 50 μl of a solution of a compound to be tested at the due concentration, and 50 μl of a solution of TNF at the due concentration. After 2 days, each well was added with 40 μl of a solution of MTT [3-(4,5-dimethylthiazol-2-yl)-2,5-diphenyltetrazolium bromide], and the whole was incubated at 37° C. for 4 hours, then the content of the wells was sucked up, added with 200 μl/well of dimethylsulfoxide to dissolve the blue crystals of formazane formed because of the cell activity, then the optical density values were read by a reader with a 570 nm filter. […] The optical density values are directly proportional to the inhibitory activity performed by the compounds of the invention against TNF.

[3] = test system: Carrageenan-induced oedema; test: Carrageenan-induced oedema (acute inflammation); type: in vivo; details: oral; for % of inhibition (reduction of the oedema), 1 hour: 1 hour after carrageenan; for % of inhibition (reduction of the oedema), 3 hours: 3 hours after carrageenan; for % of inhibition (reduction of the oedema), 5 hours: 5 hours after carrageenan
Experimental: In vivo anti-inflammatory activity: models of acute inflammation
A. Carrageenan-induced oedema The test is disclosed, inter alia, by Blake, D. R. et al., Ann. Rheum. Dis., 43, 89-93, 1983. The animals were orally administered with 10 or 30 mg/kg doses of the compounds of the invention 1 hour before the injection of carrageenan. The condition of the oedema was checked 1, 3 and 5 hours after said injection. In Table 3 the percentage of reduction of the oedema is set forth.

[4] = TNF 1 ng/ml, read-out: % of inhibition, TNF (1 ng/ml)
[5] = TNF 5 ng/ml, read-out: % of inhibition, TNF (5 ng/ml)

With `CCCCN(CCCC)[C@@H]1CCCC[C@H]1OC(=O)OCc1cccnc1` (relative stereo) [4, C]] the inhibition at 50 µM [1] was 18%, the inhibition at 100 µM [1] was 28% and the inhibition at 100 µg/mL [2, 4] was 23%.

For `CCCCN1CCC(COC(=O)OCC2CCN(CCCC)CC2)CC1` [1, E]], the inhibition at 25 µM [1] was 56.5%, the inhibition at 50 µM [1] was 70% and the inhibition at 100 µM [1] was 79%. It also gave an inhibition at 200 µM ([1]; 200 μM) of 97% and an inhibition at 10 µg/mL [2, 4] of 45%.

In the case of `CCCCN(CCCC)[C@@H]1CCCC[C@H]1OC(=O)OCC1CCCN(C)C1` (stereo partly drawn) [5, C]], the inhibition at 50 µM [1] is reported as 22%, the inhibition at 100 µM [1] is reported as 23% and the inhibition at 10 µg/mL [2, 4] is reported as 73%. The inhibition at 100 µg/mL [2, 4] was 36%, the inhibition at 10 µg/mL [2, 5] was 21% and the inhibition at 100 µg/mL [2, 5] was 30%.

`CCCCN(CCCC)CCC(C)OC(=O)OC(C)CCN(CCCC)CCCC` (stereo not drawn) [8, D]] was tested, and the inhibition at 12.5 µM ([1]; 12.5 μM) was 33%, the inhibition at 25 µM [1] was 49% and the inhibition at 50 µM [1] was 55%. The inhibition at 100 µM [1] was 27%, the inhibition at 10 µg/mL [2, 4] was 100% and the inhibition at 100 µg/mL [2, 4] was 100%. It also gave an inhibition at 10 µg/mL [2, 5] of 56% and an inhibition at 100 µg/mL [2, 5] of 82%.

With `CCCCN(CCCC)CCCC(C)OC(=O)OC(C)CCCN(CCCC)CCCC` (stereo not drawn) [10, C]] the inhibition at 25 µM [1] was 29.5%, the inhibition at 50 µM [1] was 45.5% and the inhibition at 10 µg/mL [2, 4] was 100%. It also gave an inhibition at 100 µg/mL [2, 4] of 100%, an inhibition at 10 µg/mL [2, 5] of 73% and an inhibition at 100 µg/mL [2, 5] of 95%. For the same compound, the “% of inhibition (reduction of the oedema), 1 hour” value ([3]; 10 mg/kg) was 26.1%, the “% of inhibition (reduction of the oedema), 3 hours” value ([3]; 10 mg/kg) was 10% and the “% of inhibition (reduction of the oedema), 1 hour” value ([3]; 30 mg/kg) was 13%. The “% of inhibition (reduction of the oedema), 3 hours” value ([3]; 30 mg/kg) was 43% and the “% of inhibition (reduction of the oedema), 5 hours” value ([3]; 30 mg/kg) was 31.3%.

In the case of `CCCCN(CCCC)CCCOC(=O)OC(C)CCCN(CCCC)CCCC` (stereo not drawn) [12, B]], the inhibition at 10 µg/mL [2, 4] is reported as 68%, the inhibition at 100 µg/mL [2, 4] is reported as 65% and the inhibition at 10 µg/mL [2, 5] is reported as 50%. It also gave an inhibition at 100 µg/mL [2, 5] of 62%.

With `CCN(CC)CCCCCCOC(=O)OCCCCCCN(CC)CC` [13, E]] the inhibition at 50 µM [1] was 27.5%, the inhibition at 100 µM [1] was 43.5% and the inhibition at 10 µg/mL [2, 4] was 55%. For the same compound, the inhibition at 100 µg/mL [2, 4] was 45% and the inhibition at 100 µg/mL [2, 5] was 21%.

For `CCCCN(CCCC)CCCCCOC(=O)OCCCCCN(CCCC)CCCC` [14, E]], the inhibition at 100 µg/mL [2, 4] was 100% and the inhibition at 100 µg/mL [2, 5] was 59%.

Compound `CN(CCCOC(=O)OCCCN(C)Cc1ccccc1)Cc1ccccc1` [16, D]] has an inhibition at 100 µM [1] of 27% and an inhibition at 100 µg/mL [2, 5] of 21%.

`O=C(OCCCN(Cc1ccccc1)Cc1ccccc1)OCCCN(Cc1ccccc1)Cc1ccccc1` [17, D]] showed an inhibition at 100 µM [1] of 19%.

In the case of `CC(C)N(CCCCOC(=O)OCCCCN(C(C)C)C(C)C)C(C)C` [18, D]], the inhibition at 50 µM [1] is reported as 55%, the inhibition at 100 µM [1] is reported as 63% and the inhibition at 100 µg/mL [2, 4] is reported as 17%. For the same compound, the “% of inhibition (reduction of the oedema), 3 hours” value ([3]; 30 mg/kg) was 27% and the “% of inhibition (reduction of the oedema), 5 hours” value ([3]; 30 mg/kg) was 28.7%.

In the case of `CCCCN(CCCC)CCCOC(=O)OCCCN(CCCC)CCCC` [19, D]], the inhibition at 10 µg/mL [2, 4] is reported as 17% and the inhibition at 100 µg/mL [2, 4] is reported as 48%.

`CCCCN(CCCC)CCCC(CC)OC(=O)OC(CC)CCCN(CCCC)CCCC` (stereo not drawn) [38, E]] was tested, and the “% of inhibition (reduction of the oedema), 1 hour” value ([3]; 10 mg/kg) was 22.5%, the “% of inhibition (reduction of the oedema), 3 hours” value ([3]; 10 mg/kg) was 15% and the “% of inhibition (reduction of the oedema), 5 hours” value ([3]; 10 mg/kg) was 20.5%.
